Results on 19 molecules are retold here after patent publication US11478474B2, “2-(3′-(hydroxymethyl)-1-methyl-5-((5-(2-methyl-4-(oxetan-3-yl)piperazin-1-yl)pyridin-2-yl)amino)-6-oxo-1,6-dihydro-[3,4′-bipyridin]-2′-yl)-7,7-dimethyl-7,8-dihydro-2H-cyclopenta[4,5]pyrrolo[1,2-a]pyrazin-1(6H)-one as a BTK inhibitor” (HUTCHISON MEDIPHARMA LIMITED, priority 2020, dated 2022).

The structures appear in SMILES notation.

Sequence of BTK recombinant protein (Q06187 whole entry): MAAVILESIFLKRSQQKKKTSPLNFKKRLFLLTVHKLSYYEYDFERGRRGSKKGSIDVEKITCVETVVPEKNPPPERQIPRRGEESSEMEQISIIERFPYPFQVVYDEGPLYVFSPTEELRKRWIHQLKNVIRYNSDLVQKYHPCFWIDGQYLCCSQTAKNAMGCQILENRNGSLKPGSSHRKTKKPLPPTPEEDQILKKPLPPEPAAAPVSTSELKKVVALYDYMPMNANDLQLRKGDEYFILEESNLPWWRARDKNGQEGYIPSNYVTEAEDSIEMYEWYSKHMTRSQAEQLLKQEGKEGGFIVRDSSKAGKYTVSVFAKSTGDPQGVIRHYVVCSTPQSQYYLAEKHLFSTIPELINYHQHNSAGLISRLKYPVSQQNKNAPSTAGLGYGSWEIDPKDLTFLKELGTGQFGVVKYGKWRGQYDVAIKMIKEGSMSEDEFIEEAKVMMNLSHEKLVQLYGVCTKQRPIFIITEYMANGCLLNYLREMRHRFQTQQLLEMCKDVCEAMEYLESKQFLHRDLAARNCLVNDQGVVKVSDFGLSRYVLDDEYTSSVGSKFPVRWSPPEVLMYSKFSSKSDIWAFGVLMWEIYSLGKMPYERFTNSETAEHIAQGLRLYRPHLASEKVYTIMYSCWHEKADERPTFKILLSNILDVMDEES

In this assay the target is BTK recombinant protein (Homo sapiens (Human), UniProt Q06187). The experiment in a line: Determination of biochemical BTK (Z'-LYTE kinase assay). An excerpt:
Example 2 Determination of Biochemical BTK
1. Reagents and Materials
BTK recombinant protein: Invitrogen, Cat #PV3363;
Z′-LYTE® kinase test kit-tyrosine 1 peptide: Invitrogen, Cat #PV3190;
Z′-LYTE® biochemical assay employs a fluorescence resonance energy transfer (FRET)—based, coupled-enzyme format and is based on the differential sensitivity of phosphorylated and non-phosphorylated peptides to proteolytic cleavage. Both ends of the short peptide substrate are labeled with two fluorescent groups to form a FRET paired combination. In the primary reaction (the Kinase Reaction), the kinase transfers the γ-phosphate of ATP to a single […] residue on the short peptide substrate. In the secondary reaction (the development reaction), the non-phosphorylated short peptides were recognized and cleaved by a site-specific protease (the development reagent). Phosphorylated short peptides can resist such cleavage. Cleavage of short peptides can disrupt the donor (such as coumarin) and receptor fluorophores (fluorescein) on the short peptides, while the phosphorylated short peptides can maintain FRET. The calculation method of the ratio is as follows, and the ratio of the respective emission signals generated by the donor fluorophores emitted (after excitation at 400 nm) to the receptors is calculated. Emission signal ratio=emitted light by coumarin (445 nm)/emitted light by fluorescein (520 nm). If the FRET short peptide is phosphorylated (such as no kinase inhibitor), the emitted light ratio will remain in a lower level. If the FRET short peptide is non-phosphorylated (such as kinase inhibitor), the emitted light ratio will be in a higher level. In this way, the inhibitory effects of different compound inhibitors on BTK kinase activity would be distinguished.
The experiment were carried out according to the instructions of the Z′-LYTE® kinase test kit-tyrosine 1 peptide. Reagent preparation: 1.33× kinase buffer: 5× kinase buffer was diluted with water to 1.33× kinase buffer; an enzyme solution: the kinase was dissolved in 1.33× kinase buffer with the final working concentration being 3.32 nM; a short peptide solution: a short peptide stock solution (1 mM dissolved in DMSO) was dissolved in 1.33× kinase buffer with the final working concentration being 2 μM; Z′-LYTE Tyr01 phosphorylated short peptide solution, 0.6 μl of stock solution (1 mM dissolved in DMSO) was dissolved in 149.4 μl of 1.33× kinase buffer; an ATP solution: an ATP stock solution (10 mM aqueous solution) was dissolved in 1.33× kinase buffer with the final working concentration being 32 μM; a color-developing solution: color-developing solution B was dissolved in color-developing buffer with the final working concentration being 1× color-developing solution; 4× compound preparation: the compound was diluted in 3-fold gradient concentration to finally obtain 4% DMSO aqueous solution containing different concentrations of the compound, with the final working concentration being 3000, 1000, 333.33, 111.11, 37.04, 12.35, 4.12, 1.37 nM, 8 concentration points in total.
Specific steps of the experiment: In the experiment, there were three control groups, each with 8 replicate wells, which were C1 100% inhibition group (no ATP), C2 0% inhibition group (with ATP), and C3 100% phosphorylation group, respectively. 2.5 μl of serially diluted compound was added to each well of a 384-well plate, with double replicate wells, and 4% DMSO solution was added to wells C1, C2, and C3. After that, except for wells C3, 2.5 μl of BTK enzyme solution was added to each remaining well, which was left to stand at 4° C. for 30 minutes. After that, except for wells C3, 2.5 μl of short peptide solution was added to each well, and 5 μl of phosphorylated short peptide solution was added to each of wells C3. 2.5 μl of 1.33× kinase buffer was added to each of wells C1 and C3, and 2.5 μl of ATP solution was added to each of the remaining wells. […]
In the case of `CC(O)c1c(-c2cc(Nc3ccc(N4CCN(C5COC5)C[C@@H]4C)cn3)c(=O)n(C)c2)ccnc1-n1ccn2c3c(cc2c1=O)CC(C)(C)C3` (mixture of isomers) [Compound 114], the 50% inhibitory concentration (IC50) – broadly, the concentration needed to halve the response being measured – was greater than 3000 nM.

Regarding `[2H]C(O)c1c(-c2cc(Nc3ccc(N4CCN(C5COC5)C[C@@H]4C)cn3)c(=O)n(C([2H])([2H])[2H])c2)ccnc1-n1ccn2c3c(cc2c1=O)CC(C)(C)C3` (stereo partly shown) [Compound 38], the concentration for half-maximal inhibition (IC50) was less than 1 nM.

On to `CCC(=O)Nc1cc(-c2ccnc(-n3ccn4c5c(cc4c3=O)CC(C)(C)C5)c2CO)cn(C)c1=O` [Compound 88], for which the half-maximal inhibitory concentration (IC50) amounted to 134 nM.

As to `Cn1cc(-c2ccnc(-n3ccn4c5c(cc4c3=O)CC(C)(C)C5)c2CO)cc(N)c1=O` [Compound 98, 2-(5-amino-3′-(hydroxymethyl)-1-methyl-6-oxo-1,6-dihydro-[3,4′-bispyridin]-2′-yl)-7,7-dimethyl-7,8-dihydro-2H-cyclopenta[4,5]pyrrolo[1,2-a]pyrazin-1(6H)-one], the half-inhibitory concentration (IC50) was 1270 nM.

Regarding `C[C@H]1CN(C2COC2)CCN1c1ccc(Nc2cc(-c3ccnc(-n4ccn5c6c(cc5c4=O)CC(C)(C)C6)c3CO)cn(C)c2=O)c(F)c1` [Compound 103], the IC50 was greater than 3000 nM.

In the case of `Cn1cc(-c2ccnc(-n3ccn4c5c(cc4c3=O)CC(C)(C)C5)c2CO)cc(NC(=O)C2CCC2)c1=O` [Compound 130], the IC50 was 316 nM.

On to `Cn1cc(-c2ccnc(-n3ccn4c5c(cc4c3=O)CC(C)(C)C5)c2CO)cc(NC(=O)c2ccccc2)c1=O` [Compound 131], for which the IC50 is 2010 nM.

Turning to `CCn1cc(Nc2cc(-c3ccnc(-n4ccn5c6c(cc5c4=O)CCC6)c3CO)cn(C)c2=O)nn1` [Compound 138], the half-maximal inhibitory concentration (IC50) came out at 218 nM.

Turning to `COc1ccc(Nc2cc(-c3ccnc(-n4ccn5c6c(cc5c4=O)CCC6)c3CO)cn(C)c2=O)nc1` [Compound 146], the IC50 was found to be 624 nM.

Consider `Cc1ccc(Nc2cc(-c3ccnc(-n4ccn5c6c(cc5c4=O)CCC6)c3CO)cn(C)c2=O)nn1` [Compound 147], for which the IC50 amounted to 1560 nM.

With `COCCN1CCn2nc(Nc3cc(-c4ccnc(-n5ccn6c7c(cc6c5=O)CCC7)c4CO)cn(C)c3=O)cc2C1` [Compound 148], the 50% inhibitory concentration (IC50) was determined as 112 nM.

For the molecule `COC1CN(c2ccc(Nc3cc(-c4ccnc(-n5ccn6c7c(cc6c5=O)CCC7)c4CO)cn(C)c3=O)nc2)C1` [Compound 152], the concentration for half-maximal inhibition (IC50) amounted to 353 nM.

Regarding `COCc1cc(Nc2cc(-c3ccnc(-n4ccn5c6c(cc5c4=O)CCC6)c3CO)cn(C)c2=O)nn1C` [Compound 153], the IC50 stood at 117 nM.

With `Cn1cc(-c2ccnc(-n3ccn4c5c(cc4c3=O)CCC5)c2CO)cc(Nc2cc3n(n2)CCOC3)c1=O` [Compound 155], the half-maximal inhibitory concentration (IC50) amounted to 122 nM.

As for `Cc1nn(-c2nccc(-c3cc(Nc4ccc(N5CCN(C6COC6)C[C@@H]5C)cn4)c(=O)n(C)c3)c2CO)c(=O)c2cc3c(n12)CCCC3` [Compound 158], the IC50 was found to be 194 nM.

Regarding `COCCN1CCn2nc(Nc3cc(-c4ccnc(-n5cnn6c7c(cc6c5=O)CCCC7)c4CO)cn(C)c3=O)cc2C1` [Compound 194], the 50% inhibitory concentration (IC50) is 65 nM.

With `C[C@H]1COCCN1c1cnc(Nc2cc(-c3ccnc(-n4ncn5c6c(cc5c4=O)CC(C)(C)C6)c3CO)cn(C)c2=O)nc1` [Compound 195], the IC50 was determined as 38 nM.

Take `C[C@H]1CN(C2COC2)CCN1c1cnc(Nc2cc(-c3ccnc(-n4ncn5c6c(cc5c4=O)CC(C)(C)C6)c3CO)cn(C)c2=O)nc1` [Compound 197]: the IC50 was 66 nM.

For the molecule `C[C@@H]1CN(c2ccc(Nc3cc(-c4ccnc(-n5ccn6c7c(cc6c5=O)CC(C)(C)C7)c4CO)nn(C)c3=O)nc2)[C@@H](C)CN1C1COC1` [Compound 201], the IC50 was 5 nM.
